Experimental data: ChEMBL document CHEMBL1137360, “Structure-activity relationships of a novel series of urotensin II analogues: identification of a urotensin II antagonist” (J Med Chem, 2006)
Activity calls are given as the source filed them. The rule behind the calls is not given here. Positions of bridges follow the written chain, without caps; N, C: chain ends. Non-standard residues stand in square brackets, D forms with d. Residues, ends and D or L forms follow the SMILES beside them. Phe(4-COOH) = N[C@@H](Cc1ccc(C(=O)O)cc1)C(=O)O; pGlu = O=C1CC[C@@H](C(=O)O)N1

How the values were obtained:
[1] = biological target: T1, Urotensin-2 receptor (Rattus norvegicus, UniProt P49684); assay: Antagonist potency against human urotensin-2-induced contraction of rat aortic ring; type: functional, tissue-based, Aorta; conditions: read-out: pA2 (converted)
T1 sequence (P49684 whole entry): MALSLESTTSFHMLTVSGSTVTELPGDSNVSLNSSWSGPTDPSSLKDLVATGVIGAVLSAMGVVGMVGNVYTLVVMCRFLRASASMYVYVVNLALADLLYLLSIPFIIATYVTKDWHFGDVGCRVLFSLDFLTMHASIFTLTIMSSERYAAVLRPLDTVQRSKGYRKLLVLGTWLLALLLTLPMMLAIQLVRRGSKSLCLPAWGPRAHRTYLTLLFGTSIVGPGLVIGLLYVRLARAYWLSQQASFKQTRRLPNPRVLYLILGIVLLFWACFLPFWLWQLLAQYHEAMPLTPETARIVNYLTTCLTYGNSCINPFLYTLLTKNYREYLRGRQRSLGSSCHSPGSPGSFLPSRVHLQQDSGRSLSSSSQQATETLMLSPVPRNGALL

[2] = species: Rattus norvegicus; assay: Agonist activity in rat aortic ring contraction assay relative to 1 uM phenylephrine; type: functional
[3] = biological target: T2, Urotensin-2 receptor (Rattus norvegicus) (UniProt P49684); assay: Antagonist activity against 0.1 uM human urotensin-2-induced contraction of rat aortic ring; type: functional, tissue-based; parameters: scale not given: the % may be the effect or the level left; conditions: Aorta
T2 sequence (whole entry): T1 sequence (P49684 whole entry)

[4] = species: Rattus norvegicus; assay: Agonist activity in rat aortic ring contraction assay; type: functional; conditions: Aorta
[5] = biological target: T3, Urotensin-2 receptor (Homo sapiens, UniProt Q9UKP6); assay: Displacement of [125I]human urotensin-2 from human GPR14 transfected in CHO cells; type: cell-based
T3 sequence (Q9UKP6 whole entry): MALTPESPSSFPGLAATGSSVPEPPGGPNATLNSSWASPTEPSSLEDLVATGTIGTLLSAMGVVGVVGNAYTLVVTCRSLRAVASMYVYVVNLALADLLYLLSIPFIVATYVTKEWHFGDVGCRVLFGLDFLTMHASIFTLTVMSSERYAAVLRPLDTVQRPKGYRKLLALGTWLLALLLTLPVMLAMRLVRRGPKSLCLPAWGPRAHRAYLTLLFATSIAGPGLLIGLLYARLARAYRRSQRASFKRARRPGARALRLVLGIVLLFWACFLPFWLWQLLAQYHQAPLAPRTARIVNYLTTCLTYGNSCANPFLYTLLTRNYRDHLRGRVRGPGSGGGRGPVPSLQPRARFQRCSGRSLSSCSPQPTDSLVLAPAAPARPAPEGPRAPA

[6] = species: Rattus norvegicus; assay: Agonist activity in rat aortic ring contraction assay relative to 0.1 uM phenylephrine; type: functional, Aorta
[7] = biological target: T2, Urotensin-2 receptor (Rattus norvegicus); assay: Antagonist activity against 1 uM human urotensin-2-induced contraction of rat aortic ring; type: functional, tissue-based; conditions: Aorta

In the case of `CC(C)[C@H](NC(=O)[C@@H]1CSSC[C@H](NC(=O)[C@@H](N)CC(=O)O)C(=O)N[C@@H](CC2CCCCC2)C(=O)N[C@@H](Cc2c[nH]c3ccccc23)C(=O)N[C@@H](CCCCN)C(=O)N[C@@H](Cc2ccc(O)cc2)C(=O)N1)C(=O)O`, the Kb [1] is reported as 813 nM, the Activity ([2]; Aorta) is reported as “inactive” and the Activity [3] is reported as 95.7%. It also gave an EC50 [4] of over 10000 nM and a Ki [5] of 407 nM.
`CC(C)C[C@@H]1NC(=O)[C@@H](NC(=O)[C@@H](N)CC(=O)O)CSSC[C@@H](C(=O)N[C@H](C(=O)O)C(C)C)NC(=O)[C@H](Cc2ccc(O)cc2)NC(=O)[C@H](CCCCN)NC(=O)[C@H](Cc2c[nH]c3ccccc23)NC1=O` (H-DCLWKYCV-OH; disulfide 2-7) was tested, and the Activity [6] was 38.7%, the Activity [7] was “inactive” and the EC50 [4] was over 10000 nM. It also gave a Ki [5] of 132 nM.
With `CC(C)[C@H](NC(=O)[C@@H]1CSSC[C@H](NC(=O)[C@@H](N)CC(=O)O)C(=O)N[C@@H](Cc2ccccc2)C(=O)N[C@@H](Cc2c[nH]c3ccccc23)C(=O)N[C@@H](CCCCN)C(=O)N[C@@H](Cc2ccc(C(=O)O)cc2)C(=O)N1)C(=O)O` (H-DCFWK[Phe(4-COOH)]CV-OH; disulfide 2-7) the Activity [2] was 79.3%, the Activity [7] was “inactive” and the EC50 [4] was 1700 nM. The Ki [5] was 74.1 nM.
`CC(C)[C@H](NC(=O)[C@@H]1CSSC[C@H](NC(=O)[C@@H]2CCC(=O)N2)C(=O)N[C@@H](Cc2ccccc2)C(=O)N[C@@H](Cc2c[nH]c3ccccc23)C(=O)N[C@@H](CCCCN)C(=O)N[C@@H](Cc2ccc(O)cc2)C(=O)N1)C(=O)O` ([pGlu]CFWKYCV-OH; disulfide 2-7) was tested, and the Activity [2] was 98.6%, the Activity [7] was “inactive” and the EC50 [4] was 5.89 nM. It also gave a Ki [5] of 0.912 nM.
